Test system: Artemia
Experiment: Tested for bioactivity against Brine Shrimp
Type: functional

CC[C@H](C)[C@H]1O[C@]2(C=C[C@@H]1C)C[C@@H]1C[C@@H](C/C=C(\C)[C@@H](O[C@@H]3C[C@@H](OC)[C@H](O[C@@H]4C[C@@H](OC)[C@H](O)[C@@H](C)O4)[C@@H](C)O3)[C@@H](C)/C=C/C(O)[C@]3(O)COC4[C@H](O)C(C)=C[C@@H](C(=O)O1)[C@@]43O)O2 (stereo not given in full)
IC100: >55000 ng/mL

CC[C@H](C)[C@H]1O[C@]2(C=C[C@@H]1C)C[C@@H]1C[C@@H](C/C=C(\C)[C@@H](O[C@@H]3C[C@@H](OC)[C@H](O[C@@H]4C[C@@H](OC)[C@H](O)[C@@H](C)O4)[C@@H](C)O3)[C@@H](C)/C=C/C(Sc3ccccc3)[C@]3(O)COC4[C@H](O)C(C)=C[C@@H](C(=O)O1)[C@@]43O)O2 (stereo not given in full)
IC100: >55000 ng/mL

CC[C@H](C)[C@H]1O[C@]2(C=C[C@@H]1C)C[C@@H]1C[C@@H](C/C=C(\C)[C@@H](O[C@@H]3C[C@@H](OC)[C@H](O[C@@H]4C[C@@H](OC)[C@H](O)[C@@H](C)O4)[C@@H](C)O3)[C@@H](C)/C=C/[C@@H]3O[C@]34COC3[C@H](O)C(C)=C[C@@H](C(=O)O1)[C@@]34O)O2 (stereo not given in full)
IC100: 650 ng/mL

CC[C@H](C)[C@H]1O[C@]2(C=C[C@@H]1C)C[C@@H]1C[C@@H](C/C=C(\C)[C@@H](O[C@@H]3C[C@@H](OC)[C@H](O[C@@H]4C[C@@H](OC)[C@H](O)[C@@H](C)O4)[C@@H](C)O3)[C@@H](C)/C=C/C=C3\COC4[C@H](O)C(C)=C[C@@H](C(=O)O1)[C@]34O)O2 (stereo not given in full)
IC100: 335 ng/mL

CC[C@H](C)[C@H]1O[C@]2(CC[C@@H]1C)C[C@@H]1C[C@@H](C/C=C(\C)[C@@H](O[C@@H]3C[C@@H](OC)[C@H](O[C@@H]4C[C@@H](OC)[C@H](O)[C@@H](C)O4)[C@@H](C)O3)[C@@H](C)/C=C/C=C3\COC4[C@H](O)C(C)=C[C@@H](C(=O)O1)[C@]34O)O2 (stereo not given in full)
IC100: 430 ng/mL

From ChEMBL document CHEMBL1127127, “Avermectin B1-8,9-oxide: reactivity, bioactivity, and stereochemistry” (1993)
